pIC50: −log10 of the molar value.
The compounds below were run against T1, full-length recombinant human NEK7 (Homo sapiens, UniProt Q8TDX7) (assay: NEK7 enzymatic assay). Conditions: casein substrate, [32P]-ATP, radiometric P81 filter assay.
T1 construct: full-length recombinant human NEK7; GST (N); purchased SignalChem N09-10G; host or cells: Sf9 insect cells (baculovirus)
Assay type: biochemical
Procedure: Casein substrate (from bovine milk, hydrolyzed and partially dephosphorylated mixture of α, β, and κ caseins, obtained from Sigma Aldrich, catalogue #C4765, diluted in distilled water to a final concentration of 1 mg/mL, assay concentration 20 μM) and full-length recombinant human NEK7 (expressed by baculovirus in Sf9 insect cells using a N-terminal GST tag, obtained from SignalChem, catalogue #N09-10G, […], assay concentration 70 nM) were mixed in assay buffer (20 mM Hepes pH 7.5, 10 mM MgCl2, 1 mM EGTA, 0.02% Brij35, 0.02 mg/mL BSA, 0.1 mM […], 2 mM DTT, 1% DMSO). Compounds of interest (in DMSO, serial 3-fold dilution from 10 μM to 0.5 nM) or control (1% DMSO) were dispensed into the kinase reaction mixture by Acoustic technology (Echo550; nanoliter range). After incubation at room temperature for 20 minutes, the kinase reaction was initiated by addition of [^32P]-ATP (Specific activity 10 μUCi/μl) and the mixture was incubated at room temperature for 2 hours. The reaction was then stopped by spotting the reaction mixture on strips of phosphocellulose P81 paper. Following washing, the radioactivity of the P81 paper was measured and kinase activity data were expressed as the percent remaining kinase activity in test samples compared to vehicle (dimethyl sulfoxide) reactions. IC50 values and curve fits were obtained using Prism (GraphPad Software).
(§1) Representative compounds were tested for inhibitory activity against NEK7 and IL-1β release according to the procedures described above.

T1 sequence (Q8TDX7 whole entry): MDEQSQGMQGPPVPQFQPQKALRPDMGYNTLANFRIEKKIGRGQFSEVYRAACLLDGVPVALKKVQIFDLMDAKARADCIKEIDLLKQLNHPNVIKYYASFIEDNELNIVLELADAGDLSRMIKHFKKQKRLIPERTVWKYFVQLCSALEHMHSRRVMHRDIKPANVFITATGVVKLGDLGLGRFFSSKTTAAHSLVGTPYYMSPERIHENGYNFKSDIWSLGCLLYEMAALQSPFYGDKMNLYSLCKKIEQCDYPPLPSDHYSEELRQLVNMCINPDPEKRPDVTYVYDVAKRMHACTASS

SMILES | pIC50
CN1CCN(Cc2ccc(NC(=O)Nc3ccc(Oc4ccnc5[nH]cc(Cl)c45)cc3F)cc2C2CC2)CC1 [Example I-26, 1-(4-((3-chloro-1H-pyrrolo[2,3-b]pyridin-4-yl)oxy)-2-fluorophenyl)-3-(3-cyclopropyl-4-((4-methylpiperazin-1-yl)methyl)phenyl)urea] | 5.70 to 6.30
CN1CCN(C2CC(F)(F)c3cc(NC(=O)Nc4ccc(Oc5ccnc6[nH]cc(Cl)c56)cc4F)ccc32)CC1 (stereo not shown) [Example I-67, 1-(4-((3-chloro-1H-pyrrolo[2,3-b]pyridin-4-yl)oxy)-2-fluorophenyl)-3-(3,3-difluoro-1-(4-methylpiperazin-1-yl)-2,3-dihydro-1H-inden-5-yl)urea] | < 5.70
CN1CCN(Cc2ccc(NC(=O)Nc3ccc(Oc4ccnc5[nH]cc(Cl)c45)cc3F)cc2OC(F)(F)F)CC1 [Example I-62, 1-(4-((3-chloro-1H-pyrrolo[2,3-b]pyridin-4-yl)oxy)-2-fluorophenyl)-3-(4-((4-methylpiperazin-1-yl)methyl)-3-(trifluoromethoxy)phenyl)urea] | > 6.70
O=C(Nc1ccc(OC2CCN(C3COC3)CC2)c(C(F)(F)F)c1)Nc1ccc(Oc2ccnc3[nH]cc(Cl)c23)cc1F [Example I-48, 1-(4-((3-chloro-1H-pyrrolo[2,3-b]pyridin-4-yl)oxy)-2-fluorophenyl)-3-(4-((1-(oxetan-3-yl)piperidin-4-yl)oxy)-3-(trifluoromethyl)phenyl)urea] | < 5.70
Cc1c[nH]c2nccc(Oc3ccc(NC(=O)Nc4cnc(OC5CCN(C)CC5)c(C(F)(F)F)c4)c(F)c3)c12 [Example I-61, 1-(2-fluoro-4-((3-methyl-1H-pyrrolo[2,3-b]pyridin-4-yl)oxy)phenyl)-3-(6-((1-methylpiperidin-4-yl)oxy)-5-(trifluoromethyl)pyridin-3-yl)urea] | > 6.70
O=C(Nc1ccc(CN2CCN(CCF)CC2)c(C(F)(F)F)c1)Nc1ccc(Oc2ccnc3[nH]cc(Cl)c23)cc1F [Example I-50, 1-(4-((3-chloro-1H-pyrrolo[2,3-b]pyridin-4-yl)oxy)-2-fluorophenyl)-3-(4-((4-(2-fluoroethyl)piperazin-1-yl)methyl)-3-(trifluoromethyl)phenyl)urea] | 5.70 to 6.30
CN1CCN(Cc2ncc(NC(=O)Nc3ccc(Oc4ccnc5[nH]cc(Cl)c45)cc3F)cc2C(F)(F)F)CC1 [Example I-46, 1-(4-((3-chloro-1H-pyrrolo[2,3-b]pyridin-4-yl)oxy)-2-fluorophenyl)-3-(6-((4-methylpiperazin-1-yl)methyl)-5-(trifluoromethyl)pyridin-3-yl)urea] | 5.70 to 6.30
CN1CCN(Cc2ccc(NC(=O)Nc3ccc(Oc4ccnc5[nH]cc(Cl)c45)cc3F)cc2C(F)(F)F)C2(CC2)C1 [Example I-20, 1-(4-((3-chloro-1H-pyrrolo[2,3-b]pyridin-4-yl)oxy)-2-fluorophenyl)-3-(4-((7-methyl-4,7-diazaspiro[2.5]octan-4-yl)methyl)-3-(trifluoromethyl)phenyl)urea] | < 5.70
CN1CCN(Cc2cc(NC(=O)Nc3ccc(Oc4ccnc5[nH]cc(Cl)c45)cc3F)cc(C(F)(F)F)c2)CC1 [Example I-65, 1-(4-((3-chloro-1H-pyrrolo[2,3-b]pyridin-4-yl)oxy)-2-fluorophenyl)-3-(3-((4-methylpiperazin-1-yl)methyl)-5-(trifluoromethyl)phenyl)urea] | 5.70 to 6.30
CN1CCC(Oc2ccc(NC(=O)Nc3ccc(Oc4ccnc5[nH]cc(Cl)c45)cc3F)cc2C(F)(F)F)C(F)C1 (stereo not shown) [Example I-66, 1-(4-((3-chloro-1H-pyrrolo[2,3-b]pyridin-4-yl)oxy)-2-fluorophenyl)-3-(4-((3-fluoro-1-methylpiperidin-4-yl)oxy)-3-(trifluoromethyl)phenyl)urea] | 5.70 to 6.30
Cc1c[nH]c2nccc(Oc3ccc(NC(=O)Nc4ccc(OC5CCN(C)CC5)c(C(F)(F)F)c4)c(F)c3)c12 [Example I-63, 1-(2-fluoro-4-((3-methyl-1H-pyrrolo[2,3-b]pyridin-4-yl)oxy)phenyl)-3-(4-((1-methylpiperidin-4-yl)oxy)-3-(trifluoromethyl)phenyl)urea] | > 6.70
Cc1cn(-c2ccc(NC(=O)Nc3ccc(Oc4ccnc5[nH]cc(Cl)c45)cc3F)cc2C(F)(F)F)cn1 [Example I-32, 1-(4-((3-chloro-1H-pyrrolo[2,3-b]pyridin-4-yl)oxy)-2-fluorophenyl)-3-(4-(4-methyl-1H-imidazol-1-yl)-3-(trifluoromethyl)phenyl)urea] | < 5.70
CN1CCN(Cc2ccc(NC(=O)Nc3ccc(Oc4ccnc5[nH]cc(Cl)c45)cc3F)cc2Cl)CC1 [Example I-30, 1-(4-((3-chloro-1H-pyrrolo[2,3-b]pyridin-4-yl)oxy)-2-fluorophenyl)-3-(3-chloro-4-((4-methylpiperazin-1-yl)methyl)phenyl)urea] | 5.70 to 6.30

Second part, the compound after the results:

pIC50 | SMILES
< 5.70 | CN1CCN(Cc2ccc(NC(=O)Nc3ccc(Oc4ccnc5[nH]cc(Cl)c45)cc3F)cc2C(F)(F)F)CC12CC2 [Example I-60, 1-(4-((3-chloro-1H-pyrrolo[2,3-b]pyridin-4-yl)oxy)-2-fluorophenyl)-3-(4-((4-methyl-4,7-diazaspiro[2.5]octan-7-yl)methyl)-3-(trifluoromethyl)phenyl)urea]
< 5.70 | O=C(Nc1ccc(CN2CCC(F)(F)CC2)c(C(F)(F)F)c1)Nc1ccc(Oc2ccnc3[nH]cc(Cl)c23)cc1F [Example I-47, 1-(4-((3-chloro-1H-pyrrolo[2,3-b]pyridin-4-yl)oxy)-2-fluorophenyl)-3-(4-((4,4-difluoropiperidin-1-yl)methyl)-3-(trifluoromethyl)phenyl)urea]
5.70 to 6.30 | CN1CCCN(Cc2ccc(NC(=O)Nc3ccc(Oc4ccnc5[nH]cc(Cl)c45)cc3F)cc2C(F)(F)F)CC1 [Example I-33, 1-(4-((3-chloro-1H-pyrrolo[2,3-b]pyridin-4-yl)oxy)-2-fluorophenyl)-3-(4-((4-methyl-1,4-diazepan-1-yl)methyl)-3-(trifluoromethyl)phenyl)urea]
< 5.70 | CC(=O)N1CCN(Cc2ccc(NC(=O)Nc3ccc(Oc4ccnc5[nH]cc(Cl)c45)cc3F)cc2C(F)(F)F)CC1 [Example I-49, 1-(4-((4-acetylpiperazin-1-yl)methyl)-3-(trifluoromethyl)phenyl)-3-(4-((3-chloro-1H-pyrrolo[2,3-b]pyridin-4-yl)oxy)-2-fluorophenyl)urea]
< 5.70 | CN(C)C1CCN(Cc2ccc(NC(=O)Nc3ccc(Oc4ccnc5[nH]cc(Cl)c45)cc3F)cc2C(F)(F)F)CC1 [Example I-57, 1-(4-((3-chloro-1H-pyrrolo[2,3-b]pyridin-4-yl)oxy)-2-fluorophenyl)-3-(4-((4-(dimethylamino)piperidin-1-yl)methyl)-3-(trifluoromethyl)phenyl)urea]
6.30 to 6.70 | O=C(Nc1ccc(CN2CCNCC2)c(C(F)(F)F)c1)Nc1ccc(Oc2ccnc3[nH]cc(Cl)c23)cc1F [Example I-55, 1-(4-((3-chloro-1H-pyrrolo[2,3-b]pyridin-4-yl)oxy)-2-fluorophenyl)-3-(4-(piperazin-1-ylmethyl)-3-(trifluoromethyl)phenyl)urea]
6.30 to 6.70 | CN1C[C@@H]2CN(Cc3ccc(NC(=O)Nc4ccc(Oc5ccnc6[nH]cc(Cl)c56)cc4F)cc3C(F)(F)F)C[C@@H]2C1 [Example I-15, 1-(4-((3-chloro-1H-pyrrolo[2,3-b]pyridin-4-yl)oxy)-2-fluorophenyl)-3-(4-(((3aR,6aS)-5-methylhexahydropyrrolo[3,4-c]pyrrol-2(1H)-yl)methyl)-3-(trifluoromethyl)phenyl)urea]
> 6.70 | CCN1CCC(Oc2ccc(NC(=O)Nc3ccc(Oc4ccnc5[nH]cc(Cl)c45)cc3F)cc2C(F)(F)F)CC1 [Example I-64, 1-(4-((3-chloro-1H-pyrrolo[2,3-b]pyridin-4-yl)oxy)-2-fluorophenyl)-3-(4-((1-ethylpiperidin-4-yl)oxy)-3-(trifluoromethyl)phenyl)urea]

These compounds were tested on IL-1β release in THP-1 cells (assay: IL-1β release assay). Conditions: Homo sapiens; PMA-differentiated THP-1 cells, LPS + nigericin, cleaved IL-1β by JESS.
Assay type: cell-based
Procedure: Approximately 1.5 million THP-1 cells were plated in each well of a 6-well TC plate and incubated with 40 nM PMA in RPMI (10% FBS, 1% Penstrep) for 24 hours. The media was then removed and cells were rested in RPMI (10% FBS, 1% Penstrep) for 24 hours after which time the media was removed and cells were pre-treated for 2 hours with various concentrations of compounds of interest (typically serial 3-fold dilution in RPMI+5% FBS, concentrations ranging from 1 μM to 0.5 nM) in RPMI (5% FBS). The media was again removed and cells were incubated with 250 ng/mL LPS and compounds of interest (concentrations as above) in RMPI (5% FBS) for 2 hours. The media was removed for a last time and cells were incubated with 20 μM nigericin and compounds of interest (concentrations as above) in Opti-MEM for 30 minutes. Cell media was then collected and the amount of cleaved IL-1β was determined using a JESS instrument (Protein Simple) and standard protocols. Cleaved Il-1β antibody was obtained from Cell Signaling (catalogue #83186S) and was used at 1:20 dilution in antibody diluent 2. Protein Simple 1× anti-Rabbit HRP secondary antibody was used along with Protein Simple luminol and peroxide for chemiluminescent detection. Primary antibody incubation time was increased from 30 minutes to 60 minutes.
as §1

pIC50 | SMILES
> 7.30 | CCN1CCN(Cc2ccc(NC(=O)Nc3ccc(Oc4ccnc5[nH]cc(Cl)c45)cc3F)cc2C(F)(F)F)CC1 [Example I-37, 1-(4-((3-chloro-1H-pyrrolo[2,3-b]pyridin-4-yl)oxy)-2-fluorophenyl)-3-(4-((4-ethylpiperazin-1-yl)methyl)-3-(trifluoromethyl)phenyl)urea]

Reference: patent publication US20250177382A1, “NEK7 INHIBITORS” (Halia Therapeutics, Inc., priority 2021, published 2025)
